# Laboratory results reported in patent publication US12576047B2, “Telomerase activating compounds for use in fertility and related applications” (Neuromagen Pharma Ltd, priority 2017, dated 2026).
# “Also recorded” adds a separate entry of the source.
# Key:
# ICR mice = assay: Sperm count from the epididymis, with or without X-ray radiation; assay type: in vivo, mouse
# Description: Toward this end, ICR mice (3 months old) were injected with 6 mg/kg of Compound 79, Compound 68 or Compound 70, or mice were subjected to X-ray radiation (2.5 Gy) followed by immediately injection of the respective compounds. Control mice were untreated or vehicle treated with or without exposure to X-ray radiation. […] Testes were also taken for immunohistochemical and immunofluorescence analysis with various spermatogenesis markers. Epididymis was also taken for sperm count.
# γ-H2AX = γ-H2AX immunofluorescence of testis; assay type: in vivo, mouse; details: 12 hrs
# Description: (§1) Toward this end, ICR mice (3 months old) were injected with 6 mg/kg of Compound 79, Compound 68 or Compound 70, or mice were subjected to X-ray radiation (2.5 Gy) followed by immediately injection of the respective compounds. Control mice were untreated or vehicle treated with or without exposure to X-ray radiation. The testes were removed 12 hrs after treatments and subjected to protein extracts or total RNA preparations for the examination of telomerase activity by TRAP assay, telomerase expression by Western blot and real time PCR. Testes were also taken for immunohistochemical and immunofluorescence analysis with various spermatogenesis markers. Epididymis was also taken for sperm count.
# old mice (16 months old) = assay: Sperm count and motility in old mice; assay type: in vivo, mouse; details: single injection 6 mg/Kg
# CREM = CREM expression in X-ray irradiated testis; assay type: in vivo, mouse; details: X-ray 2.5 Gy then injection, 12 hrs
# Description: as §1
# telomerase = molecular target: T1, telomerase (Rattus norvegicus, UniProt Q673L6); assay: TRAP assay of telomerase activity in granulosa cells; assay type: cell-based; details: 50 nM and 200 nM for 6 hours
# T1 construct: Protein extracts prepared from these cells served for telomerase activity measurement; endogenous in cells; host or cells: immortalized rat granulosa cells expressing FSH receptor
# Description: (§2) Immortalized rat granulosa cells expressing FSH receptor were treated with either pregnant mare serum gonadotropin (PMSG), or the indicated compounds, or both for 6 hours. Protein extracts prepared from these cells served for telomerase activity measurement using a telomere repeat amplification protocol (TRAP) assay.
# (§3) Briefly, protein extract incubated with oligonucleotide, which serves as a template for telomerase (TS), for 45 minutes at 30° C. followed by PCR with reverse primer (ACX) and internal control. PCR products were separated on 4.5% agarose gel. RNA extracts were used for cDNA synthesis and quantitative real time PCR with specific primers to Telomerase reverse transcriptase (TERT), Steroidogenic acute regulatory protein (StAr) and β-actin as a reference gene. To measure progesterone levels secreted by the cells, granulosa cells were cultured with or without 1 IU/mL PMSG and DMSO, Compound 79 50 nM or compound 70 50 nM in the presence of 100 nM dexamethasone. After 24 hours progesterone levels cell-culture medium were determined by radioimmunoassay (RIA). For cell proliferation measurement, 1×10^5 cells were seeded in a 96 wells plate with 1 IU/mL PMSG and DMSO, Compound 79 50 nM or Compound 70 50 nM. After 24 hours cells viability was measured by XTT proliferation assay.
# FSH = FSH expression by RT-PCR in pituitary gland cells; assay type: cell-based, mouse; details: 50 nM, 6 hours, vs untreated
# Description: (§4) FIGS. 29A, 29B, 29C and 29D: The embodied compounds affect the expression of gonadotropin hormones in pituitary gland cells. Cells (L T2) derived from the mouse pituitary gland were assessed for their secretion of LH and FSH at 6 (FIGS. 29A and 29B) and 12 hours (FIGS. 29C and 29D) following treatment with the indicated embodied compounds (50 nM). FSH and LH expression was determined by RT-PCR, and quantified from 5 different experiments, as assessed for significance, using the t test, one way ANOVA.
# sperm = assay: Sperm head morphology after X-ray radiation; assay type: in vivo, mouse; details: X-ray 2.5 Gy, single S.C. injection 6 mg/kg, 12 hours
# Description: Three-month old mice were irradiated with X-ray (2.5 Gy) and treated with a single S.C. injection of 6 mg/kg of compound 68 or 70. Mice were sacrificed 12 hours later and sperm were removed from the epididymis and stained with eosin. The number of morphologically defective sperm (head morphology) were quantified and presented as a percentage value of the total sperm count (N=6 mice per group) (FIG. 26A). FIG. 26B provides a light micrograph showing healthy and defective sperm head morphology observed. The arrows labeled 1 and 2 point to defective sperm head morphology, and the arrows labeled 3 and 4 point to healthy sperm head morphology
# mouse ovary = assay: Hematoxylin-eosin histology of mouse ovary; assay type: in vivo
# Excerpt: The ovaries were weighted; one was taken for protein extraction for measuring telomerase activity by TRAP assay, and the other one for the histological examination using hematoxylin-eosin staining of the ovary and its follicles.
# The mice ovaries were removed and fixed with 4% paraformaldehyde overnight, dehydrated in increasing ethanol concentrations to xylene, and embedded in paraffin. A rotary microtome was used to produce 5 μm sections, which were mounted on Superfrost plus slides. The sections were dried and heated at 37° C. overnight and stored in dry place. Paraffin-embedded sections were deparaffinized in xylene and rehydrated in decreasing concentrations of ethanol. Then the sections stained with hematoxylin-eosin or subjected to immunochemical and Immunofluorescent assays [Liani-Leibson, K., I. Har-Vardi, and E. Priel, Inhibition of topoisomerase I by anti-cancer drug altered the endometrial cyclicity and receptivity. Curr Mol Med, 2014. 14(1): p. 141-50].
# LH = LH expression by RT-PCR in pituitary gland cells; assay type: cell-based, mouse; details: 50 nM, 12 hours, vs untreated
# Description: as §4
# [1] = tested on: Steroidogenic acute regulatory protein (StAr); assay: StAr relative mRNA levels by qRT-PCR in granulosa cells; assay type: cell-based, rat; details: 50 nM for 6 hours
# Description: as §2, §3
# ovarian tissue = assay: Ovarian tissue histopathology following irradiation; assay type: in vivo; details: treatment following X-ray irradiation
# Excerpt: FIGS. 28A, 28B and 28C: Ovarian tissue histopathology following irradiation (FIG. 28A), followed by treatment with Compound 70 (FIG. 28C) or DMSO carrier (FIG. 28B).
# [2] = tested on: Telomerase reverse transcriptase (TERT); assay: TERT relative mRNA levels by qRT-PCR in granulosa cells; assay type: cell-based, rat; details: 50 nM and 200 nM for 6 hours
# Description: as §2, §3
# T1 sequence (Q673L6 whole entry): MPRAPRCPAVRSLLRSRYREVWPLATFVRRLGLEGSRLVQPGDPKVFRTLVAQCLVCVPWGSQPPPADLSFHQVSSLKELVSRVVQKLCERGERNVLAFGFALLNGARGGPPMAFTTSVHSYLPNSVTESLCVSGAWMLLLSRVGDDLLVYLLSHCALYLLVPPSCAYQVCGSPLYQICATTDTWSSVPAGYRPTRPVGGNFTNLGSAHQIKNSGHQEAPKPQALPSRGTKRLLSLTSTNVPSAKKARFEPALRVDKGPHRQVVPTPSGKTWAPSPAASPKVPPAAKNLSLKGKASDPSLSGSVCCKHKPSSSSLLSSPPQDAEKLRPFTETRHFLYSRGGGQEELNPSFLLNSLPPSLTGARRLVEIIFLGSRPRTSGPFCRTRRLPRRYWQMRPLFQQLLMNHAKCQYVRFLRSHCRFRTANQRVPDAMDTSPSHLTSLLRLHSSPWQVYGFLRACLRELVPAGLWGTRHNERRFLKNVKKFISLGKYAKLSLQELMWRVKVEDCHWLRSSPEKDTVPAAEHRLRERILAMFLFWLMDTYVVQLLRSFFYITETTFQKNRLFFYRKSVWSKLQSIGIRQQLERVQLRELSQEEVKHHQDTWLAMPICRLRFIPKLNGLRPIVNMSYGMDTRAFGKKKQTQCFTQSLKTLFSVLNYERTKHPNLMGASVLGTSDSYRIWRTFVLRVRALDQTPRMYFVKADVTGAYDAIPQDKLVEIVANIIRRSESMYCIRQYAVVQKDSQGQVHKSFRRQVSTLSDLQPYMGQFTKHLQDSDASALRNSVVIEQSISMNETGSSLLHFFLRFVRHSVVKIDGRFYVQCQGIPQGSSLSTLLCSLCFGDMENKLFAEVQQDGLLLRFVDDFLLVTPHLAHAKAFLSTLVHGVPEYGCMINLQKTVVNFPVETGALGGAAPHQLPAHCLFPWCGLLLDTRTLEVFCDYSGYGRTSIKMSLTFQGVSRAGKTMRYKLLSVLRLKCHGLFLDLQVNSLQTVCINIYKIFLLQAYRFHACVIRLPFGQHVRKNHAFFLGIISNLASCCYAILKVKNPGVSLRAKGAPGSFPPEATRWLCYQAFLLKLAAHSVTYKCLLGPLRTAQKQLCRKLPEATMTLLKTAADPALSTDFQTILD
smiles,measurement,setting,value
COc1c(Br)cc(C(C)(c2cc(Br)c(OC)c(Br)c2)c2cc(Br)c(OC)c(Br)c2)cc1Br [Compound 70],sperm count,"ICR mice; irradiated mice, 9 and 30 days post irradiation",increased sperm count at 9 and 30 days post irradiation
same,sperm cells number from the epididymis,"ICR mice; non-irradiated mice, 12 hrs post treatment, compared to DMSO",a significant increase
same,DNA damage (γ-H2AX) in testis,"γ-H2AX; compound only, without irradiation",did not cause DNA damage
same,expression levels of γ-H2AX in testis,γ-H2AX; irradiated mice (2.5 Gy),a decrease in the expression levels of γ-H2AX
same,sperm counts,old mice (16 months old),increased
same,sperm motility,old mice (16 months old),increased
same,CREM expression in testis,CREM,restored the expression of the spermatogenesis markers
same,telomerase activity (TRAP),telomerase,increased expression in a dose-dependent fashion; also recorded: further increased telomerase activity and expression in granulosa cells as compared to compound 79
same,FSH expression,FSH,decreased FSH expression relative to untreated samples
same,number of defective sperm cells (head morphology),sperm,reduction in the number of defective sperm cells
same,"ovary histology (follicles, granulosa cells)","mouse ovary; 6 mg/Kg single dose at met-estrus stage, 12 hours",more developed follicles (white arrow) and plurality of layers of granulosa cells (GC) around the oocytes
same,ovary histology (corpus luteum),"mouse ovary; 6 mg/Kg single dose at pro-estrus and estrus stages, 12 hrs",more corpus luteum (CL) than in the control group
same,LH expression,LH,increased LH production above untreated levels
same,expression of StAr,[1],increased expression of StAr
same,ovarian tissue histopathology (H&E),ovarian tissue,clearly rescues ovarian tissue exposed to radiation
same,TERT relative mRNA levels,[2],increased expression in a dose-dependent fashion
